{"source": "patent US20040063156A1", "about": "“Materials and methods relating to the diagnosis and treatment of diabetes and obesity” (Rodaris Pharmaceuticals Limited, priority 1996, published 2004)", "experiment": "Urinary excretion of IPG P-type in diabetic patients treated with metformin", "type": "in vivo, human", "settings": "overweight/obese NIDDM patients on metformin, urine, FIGS. 5A,B", "source_text": "A cross-sectional study was undertaken with random spot samples collected at outpatients clinics. The patients included NIDDM subjects controlled by diet alone, by sulphonylureas, by metformin, by insulin or a combination of any of these treatments. Only a limited number of IDDM subjects were available. In the present survey, male subjects were used, this avoided complications arising from varying hormone profiles in women of different ages, in particular with or without HRT or contraceptive pills. […] In addition to the measurement of IPG P-type and IPG A-type in urine the following clinical data was made available: […]", "data": [{"smiles": "CN(C)C(=N)N=C(N)N", "note": "[metformin]", "values": [{"measurement": "effect on pattern of excretion of IPG P-type", "result": "fails to restore the pattern of excretion of IPG P-type to normal"}]}]}
